“Also recorded” adds a separate entry of the source. Counter-ions that a name gives are not always drawn.
Legend:
Allergic rhinitis model = Allergic rhinitis model (ovalbumin-sensitised guinea pig, pituita weight); assay type: in vivo; conditions: 0.01%, 0.1% and 1.0% solution, 40 uL nasally into both sides, 10 min before 1% ovalbumin; male Crj Hartley guinea pig; monohydrochloride salt
Procedure: Allergic rhinitis model was produced by administration of ovalbumin to male Crj Hartley guinea pig (6 weeks old) in the procedure shown in table 1.
At day 42, guinea pigs were inserted with tube into the trachea under anesthesia and kept the heat using heat pat. Forty micro liter of (+)-trans-3-imino-5-methyl-7-chloro-2-azabicyclo[4.1.0]heptane monohydrochloride salt (referred to as “compound A”) or physiological saline was administered nasally into both sides. Ten minutes later, 40 uL of 1% ovalbumin was administered nasally into both sides. Thirty minutes after ovalbumin administration, moisture in the nose was removed with absorbent cotton. Fifteen minutes later, absorbent cotton of which weight was measured was inserted into nose for 15 minutes. Pituita weight was calculated by the difference in weight between pre and post insertion.

NOS = conditions: cited from earlier work

Compound	Pituita weight (suppression as compared to control, physiological saline) (Allergic rhinitis model)	increase in NO production and vascular permeability in allergic conjunctivitis (NOS; Cornea, 19(1), 84-91 (2000))	prostaglandin E2 production in acute phase of allergic conjunctivitis (NOS; Prostaglandins, 52(6), 431-446 (1996))	effect on allergic conjunctivitis (NOS; in vivo)
C[C@H]1CC(=N)N[C@@H]2[C@H](Cl)[C@@H]21 (relative stereo) [compound A, (+)-trans-3-imino-5-methyl-7-chloro-2-azabicyclo[4.1.0]heptane monohydrochloride salt]	suppresses pituita weight in dose dependent manner; also recorded: noticeably suppresses pituita weights			
COC(=O)[C@@H](N)CCCNC(=N)N[N+](=O)[O-] [L-NAME, N-ω-nitro-L-arginine methylester]		suppressed	suppresses prostaglandin E2 production	the action is weak
